Experimental data: the Kinase Knowledgebase extract (Sharma et al. 2016)
Several values for one entry are separate records, joined by “and”; a condition that tells them apart may be missing. Equal entries are not always repeated.

How the values were obtained:
[1] = target: EGFR (Human), P00533 [T790M/L858R]; conditions: nci-h1975
[2] = target: EGFR (Human), P00533 [T790M/L858R]; conditions: nci-h1975; remark: listed apart in the source
[3] = target: EGFR (Human), P00533 [T790M/L858R]

EGFR (Human), P00533 [T790M/L858R], sequence (P00533 whole entry T790M/L858R, looked up): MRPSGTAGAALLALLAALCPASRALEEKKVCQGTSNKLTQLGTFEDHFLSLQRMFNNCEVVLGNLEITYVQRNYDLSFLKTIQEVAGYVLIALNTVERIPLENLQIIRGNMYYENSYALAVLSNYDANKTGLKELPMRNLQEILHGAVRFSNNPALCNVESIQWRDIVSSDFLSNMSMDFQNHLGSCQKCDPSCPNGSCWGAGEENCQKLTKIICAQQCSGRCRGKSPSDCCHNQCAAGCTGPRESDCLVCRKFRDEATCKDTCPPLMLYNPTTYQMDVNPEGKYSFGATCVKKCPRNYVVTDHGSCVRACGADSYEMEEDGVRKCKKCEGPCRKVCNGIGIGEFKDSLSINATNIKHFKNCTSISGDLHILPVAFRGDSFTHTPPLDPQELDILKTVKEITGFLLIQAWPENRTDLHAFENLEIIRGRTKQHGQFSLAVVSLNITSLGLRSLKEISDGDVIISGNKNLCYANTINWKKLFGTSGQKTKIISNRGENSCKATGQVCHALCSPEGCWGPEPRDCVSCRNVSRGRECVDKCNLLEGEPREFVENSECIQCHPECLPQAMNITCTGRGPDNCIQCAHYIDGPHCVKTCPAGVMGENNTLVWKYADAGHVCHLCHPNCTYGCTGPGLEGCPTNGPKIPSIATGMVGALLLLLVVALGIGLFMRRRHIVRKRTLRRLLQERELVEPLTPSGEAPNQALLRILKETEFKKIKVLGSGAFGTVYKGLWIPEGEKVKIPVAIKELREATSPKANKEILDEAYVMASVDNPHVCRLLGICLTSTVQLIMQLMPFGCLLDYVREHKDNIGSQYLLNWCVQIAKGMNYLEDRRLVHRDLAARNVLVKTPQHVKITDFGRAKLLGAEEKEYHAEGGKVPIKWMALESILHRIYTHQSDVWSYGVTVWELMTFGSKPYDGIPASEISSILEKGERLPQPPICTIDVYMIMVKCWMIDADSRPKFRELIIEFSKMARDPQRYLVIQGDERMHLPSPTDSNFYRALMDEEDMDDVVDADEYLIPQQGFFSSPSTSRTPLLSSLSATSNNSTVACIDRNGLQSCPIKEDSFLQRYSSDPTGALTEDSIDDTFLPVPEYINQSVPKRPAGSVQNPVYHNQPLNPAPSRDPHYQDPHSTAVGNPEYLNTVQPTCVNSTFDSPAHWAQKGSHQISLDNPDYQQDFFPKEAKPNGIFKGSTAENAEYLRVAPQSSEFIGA

SMILES: CC(C)n1nc(N2C[C@H](O)[C@@H](O)C2)c2cnc(Nc3ccnc(N4CCC(C)(O)CC4)n3)cc21
- EC50 [1]: > 10000 nM
- EC50 [2]: > 10000 nM

SMILES: CCC(C)n1nc(N2CC[C@H](O)C2=O)c2cnc(Nc3ccnc(N4CC[C@@H](O)[C@@H](F)C4)n3)cc21 (some centres undefined)
- EC50 [1]: > 10000 nM
- EC50 [2]: > 10000 nM

SMILES: CC(C)n1nc(F)c2cnc(Nc3ccnc(-c4cnn(S(=O)(=O)C5CC5)c4)n3)cc21
- EC50 [1]: > 10000 nM
- EC50 [2]: > 10000 nM

SMILES: CC(C)n1nc(NC2CNC(=O)C2)c2cnc(Nc3ccnc(N4CCC(C)(O)CC4)n3)cc21 (centres undefined)
- EC50 [1]: > 10000 nM
- EC50 [2]: > 10000 nM

SMILES: CC1COCC(C)N1c1nn(C(C)C)c2cc(Nc3ccnc(-c4cnn(S(=O)(=O)C5CC5)c4)n3)ncc12 (centres undefined)
- EC50 [1]: > 10000 nM
- EC50 [2]: > 10000 nM

SMILES: COCC1CN(c2nn(C(C)C)c3cc(Nc4ccnc(-c5cnn(S(=O)(=O)C6CC6)c5)n4)ncc23)C1
- EC50 [1]: 20.9 nM
- Ki [3]: 1 nM
- EC50 [2]: 211 nM

SMILES: CC(C)n1nc(N2CCC(C(N)=O)C2)c2cnc(Nc3ccnc(-c4cnn(S(=O)(=O)C5CC5)c4)n3)cc21 (centres undefined)
- Ki [3]: < 0.6 nM
- EC50 [2]: 608 nM

SMILES: CC(C)n1nc(N2CCS(=N)(=O)CC2)c2cnc(Nc3ccnc(-c4cnn(S(=O)(=O)C5CC5)c4)n3)cc21
- EC50 [2]: 949 nM

SMILES: CC(C)n1nc(N2CC(C(=O)N3CC[C@@H](O)C3)C2)c2cnc(Nc3ccnc(-c4cnn(S(=O)(=O)C5CC5)c4)n3)cc21
- EC50 [2]: 2520 nM

SMILES: CC(C)n1nc(N2CC[C@H](O)C2=O)c2cnc(Nc3ccnc(-c4cnn(S(=O)(=O)C5CC5)c4)n3)cc21
- EC50 [2]: 630 nM

SMILES: CC(C)n1nc(N2CC[C@@H](C#N)C2)c2cnc(Nc3ccnc(-c4cnn(S(=O)(=O)C5CC5)c4)n3)cc21
- EC50 [2]: 121 nM

SMILES: COC1CCN(c2nccc(Nc3cc4c(cn3)c(N)nn4C[C@H]3CC[C@H](N)CC3)n2)CC1
- EC50 [2]: > 10000 nM

SMILES: CCC(C)n1nc(N2CC[C@H](C(N)=O)C2)c2cnc(Nc3ccnc(N4CCC(C)(O)CC4)n3)cc21 (some centres undefined)
- EC50 [2]: 2200 nM

SMILES: CC(C)n1nc(N2CC(O)C(F)(F)C2)c2cnc(Nc3ccnc(N4CCC(C)(O)CC4)n3)cc21 (centres undefined)
- EC50 [2]: 1330 nM

SMILES: CC[C@@H](C)n1nc(N2CC3(COC3)C2)c2cnc(Nc3ccnc(N4CC[C@](C)(O)[C@H](F)C4)n3)cc21
- EC50 [2]: 1160 nM and 851 nM

SMILES: CCC(C)n1nc(N2CC[C@@H](O)C2)c2cnc(Nc3ccnc(N4CCC(C)(O)CC4)n3)cc21 (some centres undefined)
- EC50 [2]: 619 nM
